Data from paper PMC11394002, “5-Aminothiazoles Reveal a New Ligand-Binding Site on Prolyl Oligopeptidase Which is Important for Modulation of Its Protein–Protein Interaction-Derived Functions” (Journal of Medicinal Chemistry, 2024).
Where two headings read alike, the source gives them in different places.

How the values were obtained:
[1] = system: αSyn dimerization in Neuro2A cells; test: α-Synuclein dimerization assay (split Gaussia luciferase PCA); type: cell-based, mouse
[2] = system: HEK-293 cells stably expressing GFP-LC3B; test: Autophagic flux assay (GFP signal); type: cell-based, human
[3] = system: αSyn dimerization in Neuro2A cells; conditions: luminescence signal percentage of DMSO control with SEM, cited from earlier work
[4] = system: HEK-293 cells stably expressing GFP-LC3B; conditions: GFP signal percentage of DMSO control with SEM, ref 16 or 19; cited from earlier work

CC(C)c1nc(CCc2c[nH]c3ccccc23)sc1N1CCCC1 [Compound 16k, 2-(2-(1H-Indol-3-yl)ethyl)-4-isopropyl-5-(pyrrolidin-1-yl)thiazole]
effect on αSyn dimerization (in words) ([1]; 10 μM, SAR discussion): loss of activity | effect on autophagy (in words) ([2]; 10 μM, SAR discussion): loss of activity

Cc1nc(CCCc2ccccc2)oc1N1CCC[C@H]1C#N [HUP-55]
αSyn dimerization at 10 μM [3]: 85 ± 2%

C[C@H](NC(=O)CCCc1ccccc1)C(=O)N1CCC[C@H]1c1nnn[nH]1 [HUP-28]
αSyn dimerization at 10 μM ([3]; ref 16 or 19): 75 ± 5% | autophagy at 10 μM [4]: 71 ± 6%

CO[C@H]1C[C@@H]2CC[C@@H](C)[C@@](O)(O2)C(=O)C(=O)N2CCCC[C@H]2C(=O)O[C@H]([C@H](C)C[C@@H]2CC[C@@H](O)[C@H](OC)C2)CC(=O)[C@H](C)/C=C(\C)[C@@H](O)[C@@H](OC)C(=O)[C@H](C)C[C@H](C)/C=C/C=C/C=C/1C [Rapamycin]
GFP signal of the baseline ([2]; rapamycin positive control (0.5 μM), maximum effect in this assay): about 65%

Cc1nc(CCCc2ccccc2)sc1N1CCC[C@H]1C#N [HUP-46, (S)-1-(4-Methyl-2-(3-phenylpropyl)thiazol-5-yl)pyrrolidine-2-carbonitrile]
concentration of maximal efficacy in the αSyn dimerization assay [1]: 10 µM | autophagic flux, concentration–response [2]: concentration-dependent up to 20 μM
